Test systems include NCI-H226 lung; IGROV1 ovarian; SF-295 CNS; NCI-H522 lung; HCT-116 colon; PC-3 prostate; MALME-3M melanoma; OVCAR-4 ovarian; UACC-62 melanoma; SF-539 CNS.
Common to all, as to assay: inhibition of tumour cell growth, NCI panel, 48 h

Structures are written as SMILES. Where “and” joins values, the source holds several entries; their conditions need not be identical. Equal values may be shown once.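 1) Cells in 96-well plates. 2) Compound, 48 h, 5 concentrations. 3) Linear interpolation between surrounding doses. 4) Unreached endpoint = highest concentration. Abbreviation: GI50, concentration required for 50% inhibition of growth. TGI: total growth inhibition.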

On to `CSc1ccc(C2=NN(C(C)=O)C(c3ccc(-c4ccc(Cl)cc4)o3)C2)cc1` (centres undefined), for which the GI50 in the assay with NCI-H226 lung is 44.4 µM; in the assay with IGROV1 ovarian it was 6.06 µM; in the assay with SF-295 CNS it was 34 µM; with NCI-H522 lung it was 18.7 µM; in the assay with HCT-116 colon it was 18.7 µM; in the assay on PC-3 prostate it was 20.1 µM. For the same compound, the GI50 with MALME-3M melanoma was 43.2 µM; in the assay on OVCAR-4 ovarian, 32.9 µM; with UACC-62 melanoma, 20.1 µM; with SF-539 CNS, 60.2 µM. In addition, the TGI in the assay on NCI-H226 lung was greater than 100 µM; with IGROV1 ovarian, greater than 100 µM; in the assay on SF-295 CNS, greater than 100 µM; in the assay on NCI-H522 lung it was 60.3 µM; in the assay with HCT-116 colon it was greater than 100 µM; with PC-3 prostate, greater than 100 µM. Further, the TGI with MALME-3M melanoma, in the assay on OVCAR-4 ovarian, with UACC-62 melanoma and in the assay with SF-539 CNS was greater than 100 µM each time.
In the case of `COc1ccc(/C=C(/C)[N+](=O)[O-])cc1OC`, the GI50 in the assay with NCI-H226 lung was 5.03 µM and 3.71 µM; in the assay on IGROV1 ovarian it was 2.79 µM and 2.26 µM; in the assay on SF-295 CNS, 17.4 µM and 12.5 µM; in the assay with NCI-H522 lung, 0.456 µM and 0.48 µM; with HCT-116 colon it was 1.76 µM and 1.56 µM; with PC-3 prostate, 2.65 µM and 2.78 µM. Further, the GI50 in the assay with MALME-3M melanoma was 1.69 µM and 0.38 µM; with OVCAR-4 ovarian, 1.91 µM and 2.27 µM; in the assay on UACC-62 melanoma, 1.78 µM and 1.72 µM; in the assay on SF-539 CNS, 2.08 µM and 2.22 µM. Moreover, the TGI is 9.63 µM and 13.4 µM in the assay on NCI-H226 lung; 7.75 µM and 5.68 µM with IGROV1 ovarian; 32.4 µM and 27.1 µM in the assay on SF-295 CNS; 1.14 µM and 2.26 µM in the assay with NCI-H522 lung; 3.37 µM and 2.98 µM in the assay with HCT-116 colon; 6.34 µM and 6.74 µM in the assay on PC-3 prostate. In addition, the TGI is 3.89 µM and 1.56 µM in the assay on MALME-3M melanoma; 3.88 µM and 4.77 µM in the assay on OVCAR-4 ovarian; 3.62 µM and 3.89 µM in the assay on UACC-62 melanoma; 3.94 µM and 4.7 µM in the assay on SF-539 CNS.
Consider `CC1c2ccccc2CCN1c1ccc(CO)c(Cl)c1` (centres undefined), for which the GI50 with NCI-H226 lung was 0.0491 µM; in the assay with IGROV1 ovarian it was 0.0488 µM; with SF-295 CNS, 0.274 µM; in the assay with NCI-H522 lung, 17.4 µM; in the assay on HCT-116 colon, 0.0345 µM; with PC-3 prostate it was 19.6 µM. Moreover, the GI50 with MALME-3M melanoma is 22.7 µM; in the assay on OVCAR-4 ovarian, 0.049 µM; with UACC-62 melanoma, 0.15 µM; in the assay on SF-539 CNS, 19.1 µM. In addition, the TGI in the assay on NCI-H226 lung was 0.228 µM; in the assay with IGROV1 ovarian, 0.307 µM; in the assay with SF-295 CNS it was 31.4 µM; in the assay on NCI-H522 lung, 50.5 µM; in the assay on HCT-116 colon, 12.6 µM; in the assay with PC-3 prostate, greater than 83.5 µM. The TGI in the assay on MALME-3M melanoma was found to be 54.6 µM; in the assay with OVCAR-4 ovarian, 2.7 µM; in the assay on UACC-62 melanoma, 14.5 µM; in the assay with SF-539 CNS, 47.3 µM.
As for `O=C1C(OCCOc2ccccc2)=C(OCCOc2ccccc2)C(=O)c2ccccc21`, the GI50 with NCI-H226 lung is 22.1 µM; in the assay with IGROV1 ovarian, greater than 100 µM; in the assay on SF-295 CNS, 5.11 µM; with NCI-H522 lung, 3.93 µM; in the assay on HCT-116 colon, 3.13 µM; with PC-3 prostate it was 17.2 µM. For the same compound, the GI50 with MALME-3M melanoma is 24.5 µM; with OVCAR-4 ovarian, 7.1 µM; with UACC-62 melanoma, 6.79 µM; in the assay on SF-539 CNS it was greater than 100 µM. In addition, the TGI in the assay on NCI-H226 lung, in the assay on IGROV1 ovarian, in the assay on SF-295 CNS, in the assay with NCI-H522 lung, in the assay on HCT-116 colon and in the assay on PC-3 prostate was greater than 100 µM each time. Besides, the TGI in the assay with MALME-3M melanoma, in the assay with OVCAR-4 ovarian, in the assay on UACC-62 melanoma and with SF-539 CNS was greater than 100 µM in each case.
As for `Nc1n[nH]c2ccc([C@@H]3Nc4cc5c(cc4[C@H]4C6CCC(C6)[C@@H]34)C(=O)NC5)cc12` (some centres undefined), the GI50 was 0.461 µM in the assay on NCI-H226 lung; 0.417 µM in the assay with IGROV1 ovarian; 0.323 µM in the assay with SF-295 CNS; 0.305 µM with NCI-H522 lung; 0.343 µM in the assay with HCT-116 colon; 0.471 µM in the assay on PC-3 prostate. The GI50 is 0.718 µM with MALME-3M melanoma, 1.37 µM in the assay on OVCAR-4 ovarian, 0.408 µM with UACC-62 melanoma and 0.258 µM in the assay with SF-539 CNS. Also, the TGI was greater than 20.9 µM with NCI-H226 lung; greater than 100 µM with IGROV1 ovarian; greater than 42 µM in the assay with SF-295 CNS; greater than 100 µM with NCI-H522 lung; greater than 100 µM in the assay on HCT-116 colon; greater than 100 µM in the assay with PC-3 prostate. The TGI in the assay on MALME-3M melanoma is greater than 100 µM; with OVCAR-4 ovarian, greater than 100 µM; in the assay with UACC-62 melanoma, greater than 100 µM; in the assay on SF-539 CNS it was 0.814 µM.
With `CN1CCc2nc3sc(C(N)=O)c(N)c3c(-c3cccs3)c2C1`, the GI50 is 3.16 µM in the assay with NCI-H226 lung; 5.16 µM in the assay on IGROV1 ovarian; 3.61 µM with SF-295 CNS; 2.91 µM in the assay with NCI-H522 lung; 2.31 µM in the assay with HCT-116 colon; 4.58 µM in the assay on PC-3 prostate. Besides, the GI50 in the assay with MALME-3M melanoma was 5.06 µM; in the assay with OVCAR-4 ovarian, 7.38 µM; with UACC-62 melanoma it was 2.38 µM; in the assay with SF-539 CNS, 2.35 µM. Further, the TGI in the assay on NCI-H226 lung was greater than 100 µM; in the assay with IGROV1 ovarian, greater than 100 µM; in the assay on SF-295 CNS, greater than 100 µM; in the assay on NCI-H522 lung it was 17.8 µM; in the assay on HCT-116 colon, greater than 100 µM; in the assay with PC-3 prostate, greater than 100 µM. Moreover, the TGI in the assay with MALME-3M melanoma was 38.4 µM; in the assay on OVCAR-4 ovarian, greater than 100 µM; with UACC-62 melanoma, 6.56 µM; in the assay on SF-539 CNS it was 6.79 µM.
For `c1cc(N2CCN(c3ccc(C4=NCCCN4)cc3)CC2)ccc1C1=NCCCN1`, the GI50 was 59.3 µM in the assay on NCI-H226 lung; greater than 100 µM in the assay with IGROV1 ovarian; greater than 25.1 µM in the assay with SF-295 CNS; greater than 55.9 µM in the assay on NCI-H522 lung; 50.2 µM in the assay with HCT-116 colon; greater than 52.7 µM with PC-3 prostate. Also, the GI50 with MALME-3M melanoma was greater than 47.6 µM; with OVCAR-4 ovarian, 71.8 µM; with SF-539 CNS it was greater than 74.5 µM. The TGI in the assay on NCI-H226 lung, with IGROV1 ovarian, with SF-295 CNS, with NCI-H522 lung, in the assay with HCT-116 colon and in the assay on PC-3 prostate was greater than 100 µM in each case. The TGI is greater than 100 µM with MALME-3M melanoma, greater than 100 µM in the assay with OVCAR-4 ovarian, greater than 35.3 µM in the assay on UACC-62 melanoma and greater than 100 µM in the assay on SF-539 CNS.

These data come from PubChem BioAssay (NCI).
